The source of these data is US6541463B1, “Inhibitors of type 5 and type 3 17β-hydroxysteroid dehydrogenase and methods for their use” (Endorecherche, Inc., priority 1998, dated 2003).

The target of test [1] is T1, human type 3 17β-hydroxysteroid dehydrogenase (Homo sapiens, UniProt P37058).
T1 construct: expressed in transfected cells; host or cells: 293 cells, transient transfection; microsomal fraction (100 000×g pellet)
T1 sequence (P37058 1-310): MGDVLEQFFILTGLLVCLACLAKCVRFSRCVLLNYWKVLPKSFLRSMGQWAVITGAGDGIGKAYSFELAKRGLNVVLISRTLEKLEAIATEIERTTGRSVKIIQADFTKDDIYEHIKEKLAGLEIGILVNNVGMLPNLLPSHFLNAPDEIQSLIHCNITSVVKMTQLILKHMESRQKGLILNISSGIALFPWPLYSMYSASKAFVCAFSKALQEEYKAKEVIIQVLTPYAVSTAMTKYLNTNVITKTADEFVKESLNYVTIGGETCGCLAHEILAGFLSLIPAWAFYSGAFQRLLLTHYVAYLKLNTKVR
Nature of the test: Enzymatic assay for type 3 17β-HSD. It is filed as biochemical. As to conditions: for IC50: Table 4′, read-out: Inhibition Type 3 17β-HSD Activity IC50. An excerpt:
Enzymatic assay for types 1, 2, and 3 17β-HSD and types 1 and 3 3α-HSD”. Lower numbers of IC50 are desirable. Blank means that a determination was not done. The % of inhibition at the concentration of 3.10^−6M determined in preliminary screening test is reported in square braquets.
(§1) Enzyme sources. 293 cells transiently transfected with expression vectors encoding types 1, 2 and 3 17β-HSD (Luu-The et al., J. Steroid Biochem. Molec. Biol., 55: 581-587, 1995), types 1 and 2 5α-reductase (Luu-The et al., J. Invest. Dermatol., 102: 221-226, 1994) and types 1 and 3 3α-HSD (Dufort et al. Biochem. Biophys. Res. Commun. 228: 474-479, 1996), using the calcium phosphate procedure (Kingston et al., In: Current Protocols in Molecular Biology. Edited by E. M. Ausbel, R. Brent, R. E. Kingston, D. D. Moore, J. G. Seidman, J. A. Smith, K. Struhl. John Wiley & Sons, New York, pp. 9.1.1-9.1.9, 1991; Luu-The et al., J. Invest. Dermatol., 102: 221-226, 1994). For assays using cell subfractions, cells were sonicated in 50 mM sodium phosphate buffer (pH 7.4), containing 20% glycerol and 1 mM EDTA and centrifuged at 10 000×g for 30 min before centrifugation for 100 000×g for 1 h to separate the mitochondrial and microsomal fractions, respectively. The cytosol fractions (100 000×g supernatant) was used to determine type 1 activity while the microsomal fraction (pellet at 100 000×g) was used for measurement of types 2 and 3 17β-HSD activities.
(§2) Incubation. The enzymatic reaction was carried out at 37° C. in 1 ml of 50 mM sodium phosphate buffer, pH 7.4, containing 20% glycerol, 1 mM EDTA, and 2 mM cofactors (NADPH or AND^+) for 1 h in the presence of 0.1 μM ^14C-labeled substrate: estrone and 4-dione for types 1 and […] 17β-HSD, respectively, testosterone for type 2 17β-HSD as well as types 1 and 2 5α-reductases, DHT for types 1 and 3 3α-HSD activities, and the indicated concentration of inhibitor.
(§3) Extraction of metabolites, migration on TLC and quantification were as described above for the assay of type 5 17β-HSD.

Test [2] concerns the target T2, human type 1 3α-hydroxysteroid dehydrogenase (Homo sapiens, UniProt P17516).
T2 sequence (P17516 1-323): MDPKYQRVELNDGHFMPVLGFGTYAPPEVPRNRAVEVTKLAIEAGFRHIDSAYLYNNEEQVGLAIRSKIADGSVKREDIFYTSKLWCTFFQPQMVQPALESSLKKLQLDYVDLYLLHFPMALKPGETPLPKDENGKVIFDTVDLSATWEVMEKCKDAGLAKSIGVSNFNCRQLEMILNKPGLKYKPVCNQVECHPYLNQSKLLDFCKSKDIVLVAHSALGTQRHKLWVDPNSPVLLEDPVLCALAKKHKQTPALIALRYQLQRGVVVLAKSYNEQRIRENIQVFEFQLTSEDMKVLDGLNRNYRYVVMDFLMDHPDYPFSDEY
In words: Enzymatic assay for type 1 3α-HSD. It is filed as biochemical. The settings on record: Table 4′; for IC50: read-out: Inhibition Type 1 3α-HSD Activity IC50. How it is done: The manner in which IC50 was determined is described in “Efficacy of Preferred Inhibitors: VI. Enzymatic assay for types 1, 2, and 3 17β-HSD and types 1 and 3 3α-HSD”. […] numbers of IC50 are desirable. Blank means that a determination was not done. […]
as §1, §2, §3

Usually inhibition stands for the relative decrease from the control value, in per cent. Turning to `CCC[C@@H]1CC2C3C=CC4=CC(=O)CC[C@]4(C)C3CC[C@]2(C)C1=O` (some centres unmarked) [EM-1097], the inhibition at 3 µM in test [1] (3 · 10^−6 M, value in square brackets, read-out: Inhibition Type 3 17B-HSD Activity [% Inh. at 3 · 10^−6 M]) amounted to 82%.
As usually defined, the IC50 is the point on the concentration scale where inhibition reaches its midpoint. Turning to `CC1(C)CC[C@@]2(CCC3C4CCc5cc(F)ccc5C4CC[C@@]32C)OC1=O` (some centres unmarked) [EM-1157-CS], the IC50 in test [1] and in test [2] was > 10 µM each time.
With `CC1(C)CCC2(CCC3C4CCc5cc(OS(C)(=O)=O)ccc5C4CCC32C)OC1=O` (centres unmarked) [EM-1365-CS], the IC50 in test [1] and in test [2] was > 10 µM each time.
As to `COc1ccc2c(c1)C(=O)CC1C2CC[C@@]2(C)C1CC[C@@]21CCC(C)(C)C(=O)O1` (some centres unmarked) [EM-1394], the IC50 in test [1] and in test [2] was > 10 µM throughout.
As for `COCCOc1cc2c(cc1C#N)C1CC[C@@]3(C)C(CC[C@@]34CCC(C)(C)C(=O)O4)C1CC2` (some centres unmarked) [EM-1396], the IC50 in test [1] and in test [2] was > 10 µM in each case.
For the compound `CC1(C)CC[C@@]2(CCC3C4CCc5cc(C(=O)O)ccc5C4CC[C@@]32C)OC1=O` (stereo partly drawn) [EM-1401, 3-Carboxy-1,3,5(10)-estratrien-17(R)-spiro-2′-(5′,5′-dimethyl-6′-oxo)tetrahydropyran], in test [1], the IC50 is > 10 µM. Besides, the “Inhibition Type 1 3α-HSD Activity [% Inh. at 3 · 10^8M]” value in test [2] (bracketed value, 3 · 10^−6 M) was “[76] %”.
For the compound `COCCOc1cc2c(cc1C(=O)OC)C1CC[C@@]3(C)C(CC[C@@]34CCC(C)(C)C(=O)O4)C1CC2` (stereo partly drawn) [EM-1402-CS, 2-Carbomethoxy-3-(2″-methoxyethyloxy)-1,3,5(10)-estratrien 17(R)-spiro-2′-(5′,5′-dimethyl-6′-oxo)tetrahydropyran], the IC50 in test [1] and in test [2] was > 10 µM throughout.
On to `CC1(C)CC[C@@]2(CCC3C4CCc5cc(C(N)=O)ccc5C4CCC32C)OC1=O` (some centres unmarked) [EM-1404], for which the IC50 in test [1] and in test [2] was > 10 µM each time.
Regarding `COCCOc1cc2c(cc1C(N)=O)C1CC[C@@]3(C)C(CC[C@@]34CCC(C)(C)C(=O)O4)C1CC2` (stereo partly drawn) [EM-1424, 2-Carbamoyl-3-(2″-methoxyethyloxy)-1,3,5(10)-estratrien 17(R)-spiro-2′-(5′,5′-dimethyl-6′-oxo)tetrahydropyran], the IC50 in test [1] and in test [2] was > 10 µM throughout.
